SMILES strings stand for the structures. Where only a bound is given, the exact number is not on record here.

One experiment concerns the target T1, KDM5A_c1 (M1-L801) (Homo sapiens, UniProt P29375).
T1 construct: made in house
T1 sequence (P29375 1-801): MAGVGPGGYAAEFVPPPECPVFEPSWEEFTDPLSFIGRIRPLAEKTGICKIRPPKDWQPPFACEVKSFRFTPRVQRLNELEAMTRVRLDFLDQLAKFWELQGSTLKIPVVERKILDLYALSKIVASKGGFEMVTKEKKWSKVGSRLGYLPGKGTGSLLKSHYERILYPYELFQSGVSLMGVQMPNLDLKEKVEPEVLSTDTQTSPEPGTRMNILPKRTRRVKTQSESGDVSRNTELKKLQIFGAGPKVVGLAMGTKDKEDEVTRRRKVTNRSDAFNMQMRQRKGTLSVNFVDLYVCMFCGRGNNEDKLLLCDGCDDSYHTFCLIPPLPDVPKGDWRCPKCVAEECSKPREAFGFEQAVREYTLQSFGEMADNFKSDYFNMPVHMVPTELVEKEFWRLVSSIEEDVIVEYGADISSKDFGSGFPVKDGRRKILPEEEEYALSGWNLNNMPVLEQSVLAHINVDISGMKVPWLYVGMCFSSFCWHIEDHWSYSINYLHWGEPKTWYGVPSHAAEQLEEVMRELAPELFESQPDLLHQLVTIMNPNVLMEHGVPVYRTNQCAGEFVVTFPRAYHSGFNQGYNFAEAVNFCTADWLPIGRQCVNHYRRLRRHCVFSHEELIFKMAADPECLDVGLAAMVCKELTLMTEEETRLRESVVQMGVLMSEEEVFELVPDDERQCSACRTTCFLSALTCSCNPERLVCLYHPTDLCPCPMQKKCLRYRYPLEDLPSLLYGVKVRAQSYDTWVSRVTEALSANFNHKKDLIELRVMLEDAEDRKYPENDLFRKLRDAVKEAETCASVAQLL
In words: MALDI-TOF MS H3K4me3 demethylation assay, KDM5A_c1. To be noted: average ± StdDev of n = 2, read-out: IC50, inhibition of H3K4me3 demethylation activity, KDM5A_c1. It counts as biochemical. As for the experimental part: (§1) Two catalytically active constructs of KDM5A were employed, KDM5A_c1 (M1-L801) and KDM5A_c2 (ΔARID/PHD1, P13-S744 with L88-G353 (ARID/PHD1) replaced with a GGGG linker) and both KDM5A_c1 and KDM5A_c2 constructs lack the PHD2 and PHD3. […] A MALDI-TOF MS assay was used to measure the activity of H3K4me3 demethylation in the presence of inhibitors (Table 2, Fig. 3C and D).
(§2) The KDM5A mixture (5 µL, KDM5A-c1: 1.0 µM or KDM5A-c2: 0.5 µM) was pre-incubated with 100 nL inhibitors (in DMSO) for 10 min. […] The mixture was quenched using formic acid (5 µL, 1 v/v% in MQ) after 4 minutes (KDM5A-c1) or 3 minutes (KDM5A-c2). The stopped reaction (1 µL) was mixed with […] (CHCA) MALDI matrix (saturated solution in TFA (0.1%) in MilliQ water and trifluoroacetic acid (0.1%) acetonitrile (1:1)) at 1:1 ratio (2 µL), air dried and analysed using Bruker microflex MALDI-TOF controlled with FlexControl. The data were further processed using FlexAnalysis and excel.

For another experiment, the target named is T2, KDM5A_c2 (ΔARID/PHD1) (Homo sapiens, UniProt P29375).
T2 sequence (P29375 with tags, fused parts or gaps): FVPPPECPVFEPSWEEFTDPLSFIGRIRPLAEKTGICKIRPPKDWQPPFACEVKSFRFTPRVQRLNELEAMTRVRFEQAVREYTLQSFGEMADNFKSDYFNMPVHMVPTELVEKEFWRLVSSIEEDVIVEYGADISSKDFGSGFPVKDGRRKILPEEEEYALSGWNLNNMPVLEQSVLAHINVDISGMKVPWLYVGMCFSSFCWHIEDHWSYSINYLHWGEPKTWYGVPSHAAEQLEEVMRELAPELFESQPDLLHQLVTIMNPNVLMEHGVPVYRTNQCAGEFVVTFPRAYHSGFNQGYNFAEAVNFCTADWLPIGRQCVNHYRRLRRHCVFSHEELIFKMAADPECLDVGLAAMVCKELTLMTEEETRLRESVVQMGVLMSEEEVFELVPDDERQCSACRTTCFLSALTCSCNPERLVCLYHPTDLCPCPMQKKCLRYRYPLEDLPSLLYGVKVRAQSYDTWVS
In words: MALDI-TOF MS H3K4me3 demethylation assay, KDM5A_c2. To be noted: average ± StdDev of n = 2, read-out: IC50, inhibition of H3K4me3 demethylation activity, KDM5A_c2. It counts as biochemical. The protocol: as §1, §2

Experiment [1] concerns the target KDM7A (PHD-JmjC) (Homo sapiens, UniProt Q6ZMT4). In words: AlphaScreen displacement of H3K4me3-Bn from His-KDM7A(PHD-JmjC). It counts as binding. To be noted: AlphaScreen displacement of H3K4me3-Bn; n = 3; NI = No inhibition seen at 100 μM; read-out: IC50 KDM7A (PHD-JmjC) (Displacement). As for the experimental part:
A dual-domain construct of KDM7A/B(PHD-JmjC), consisting of a JmjC domain in addition to the PHD-finger (Fig. 1B), was used to test for allosteric inhibition through binding at the PHD-finger.
For peptide displacement assays, 5 µL of the inhibitor dilution series (at a concentration of 4% DMSO in AlphaScreen assay buffer) was pre-incubated with 5 µL of the protein at RT for 15 minutes. Peptide solution (5 µL) was added and incubated for 30 minutes at RT, followed by the addition of 5 µL of a mixture of AlphaScreen Streptavidin donor beads and Nickel Chelate acceptor beads in AlphaScreen assay buffer (20 µg/mL final). The contents were incubated for 60-120 minutes at RT in the dark, followed by measurement of luminescence on a BMG Labtech Pherastar plate reader (Software Ver. 5.30 R3, Firmware Ver. 1.21). The data was plotted in Prism Ver 7.01 (GraphPad Software, Inc.) and fitted to a Log(inhibitor) v/s response – variable slope model in order to obtain IC50 values.
In general terms: Alpha assays give light when donor and acceptor beads are brought close together.

Experiment [2] relates to KDM7A (PHD-JmjC). The experiment in a line: MALDI-TOF MS H3K9me2 demethylation assay, KDM7A(PHD-JmjC). The settings on record: at 100 µM, substrate H3(1–15)K9me2. It counts as biochemical, human. As for the experimental part:
Final concentrations were: 1mM ascorbate, 50 µM (NH4)2Fe(II)(SO4)2 and 200 µM 2OG. The mixture was quenched using formic acid after 10 minutes (KDM7A) or 5 minutes (KDM7B).

KDM7A (PHD-JmjC) (Homo sapiens, UniProt Q6ZMT4), sequence (Q6ZMT4 37-386 limits assumed): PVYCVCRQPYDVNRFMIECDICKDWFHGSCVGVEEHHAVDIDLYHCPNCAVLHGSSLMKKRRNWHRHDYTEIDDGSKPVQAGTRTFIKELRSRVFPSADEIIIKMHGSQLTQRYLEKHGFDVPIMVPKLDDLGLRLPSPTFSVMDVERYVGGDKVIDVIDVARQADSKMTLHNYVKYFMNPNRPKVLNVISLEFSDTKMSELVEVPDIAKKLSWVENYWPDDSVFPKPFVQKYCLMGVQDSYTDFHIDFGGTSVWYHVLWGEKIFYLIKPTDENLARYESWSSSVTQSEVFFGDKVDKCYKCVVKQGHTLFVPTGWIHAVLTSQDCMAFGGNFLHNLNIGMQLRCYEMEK

In general, IC50 refers to the concentration at which inhibition is half-maximal. As for `CCCCc1oc2ccccc2c1C(=O)c1ccc(OCCCN(C)C)cc1` [Compound 1a, (2-Butylbenzofuran-3-yl)(4-(3-(dimethylamino)propoxy)phenyl)methanone], the figures for the IC50 on KDM5A_c1 (M1-L801), on KDM5A_c2 (ΔARID/PHD1) and on KDM7A (PHD-JmjC) [1] were above 1000 µM, above 1000 µM and 295 ± 48 µM, respectively. Also, the “KDM7A (PHD-JmjC) (Catalytic), inhibition of H3K9me2 demethylation” value in the experiment with KDM7A (PHD-JmjC) [2] is recorded as 100% (100 µM).
As to `CCCCc1oc2ccccc2c1C(=O)c1ccc(OCCC[N+](C)(C)C)cc1.[I-]` [Compound 2a, 3-(4-(2-Butylbenzofuran-3-carbonyl)phenoxy)-N,N,N-trimethylpropan-1-aminium iodide], the values for the IC50 at KDM5A_c1 (M1-L801), at KDM5A_c2 (ΔARID/PHD1) and at KDM7A (PHD-JmjC) [1] were 80 ± 29 µM, 37 ± 14 µM and 149 ± 32 µM, respectively. The “KDM7A (PHD-JmjC) (Catalytic), inhibition of H3K9me2 demethylation” value in the experiment with KDM7A (PHD-JmjC) [2] is 100% (100 µM).

Source of the values: publication PMC6380468, “Investigations on small molecule inhibitors targeting the histone H3K4 tri-methyllysine binding PHD-finger of JmjC histone demethylases” (Bioorganic & Medicinal Chemistry, 2018).
